Measured values: paper PMC6272185 (Molecules, 2015)
Values after ≈ are worked out from the molar mass of the structure shown. Where two headings read alike, the source gives them in different places.

Columns and labels:
[1] = tested on: TNF-α production by LPS-stimulated RAW 264.7 macrophages; assay: Inhibition of TNF-α production by LPS-stimulated macrophages (ELISA); type: cell-based, murine; settings: Mus musculus, RAW264.7; LPS (1 µg/mL)-stimulated RAW 264.7, 24 h; mean ± SD, n = 3; read-out: IC50 TNF-α
M. bovis BCG = assay: microbe, parasite or virus in culture; type: cell-based, Mycobacterium bovis BCG; settings: for MIC50 / MIC90: Mycobacterium tuberculosis variant bovis BCG, BCG, 168 h; for MIC50: read-out: MIC50 M. bovis BCG; for MIC90: read-out: MIC90 M. bovis BCG
[2] = Macrophage cytotoxicity, LDH release assay; type: cell-based, murine; settings: mouse, RAW 264.7 macrophages stimulated with LPS; LPS-stimulated RAW 264.7, LDH release; mean ± SD, n = 3
Protocol: (§2) Cytotoxic effects of chalcone samples on RAW 264.7 cell viability in cultures stimulated with LPS were determined using the LDH (lactate dehydrogenase) release assay as previously described [58]. Cytoplasmic enzyme LDH release into cell culture supernatants was detected using a commercial LDH kit (Doles, GO, Brazil). Cell death was expressed as percentage of LDH release, which was calculated using the following formula: percentage of LDH release = 100 × (test LDH release − spontaneous release)/(maximum release − spontaneous release). The maximum release was determined following dissolution of cell monolayers using 1% (vol/vol) Triton X-100. The spontaneous release was determined in supernatants from cultures incubated in the presence of LPS and DMSO, used as a solvent for chalcone samples.

RAW 264.7 macrophages = assay: Macrophage cytotoxicity, LDH release assay; type: cell-based, murine; settings: LDH release
Protocol: as §2

[3] = tested on: NO production by LPS-stimulated RAW 264.7 macrophages; assay: Inhibition of NO production by LPS-stimulated macrophages (Griess); type: cell-based, murine; settings: mean ± SD, n = 3
M. tuberculosis H37Rv = assay: microbe, parasite or virus in culture; type: cell-based, Mycobacterium tuberculosis; settings: Mycobacterium tuberculosis
M. tuberculosis M299 = assay: microbe, parasite or virus in culture; type: cell-based, Mycobacterium tuberculosis; settings: Mycobacterium tuberculosis, M299, 120 h
[4] = tested on: RAW 264.7 macrophages infected with M. tuberculosis H37Rv; assay: Toxicity for infected macrophages, LDH assay; type: cell-based, murine; settings: Mus musculus, RAW264.7, 96 h; infected RAW 264.7, 4 days treatment; Figure 3D
Protocol: Cytotoxic effects of chalcone samples on RAW 264.7 cell viability in cultures stimulated with LPS were determined using the LDH (lactate dehydrogenase) release assay as previously described. Cytoplasmic enzyme LDH release into cell culture supernatants was detected using a commercial LDH kit (Doles, GO, Brazil). Cell death was expressed as percentage of LDH release, which was calculated using the following formula: percentage of LDH release = 100 × (test LDH release − spontaneous release)/(maximum release − spontaneous release). The maximum release was determined following dissolution of cell monolayers using 1% (vol/vol) Triton X-100. The spontaneous release was determined in supernatants from cultures incubated in the presence of LPS and DMSO, used as a solvent for chalcone samples.
(§1) RAW 264.7 macrophages were plated (1 × 10^5 cells/well) in antibiotic-free DMEM-F12 medium supplemented with 10% fetal bovine serum and incubated for 24 h. Prior to infection, mycobacterial suspensions were sonicated for 1 minute to disperse clumps and optical densities were adjusted to 0.1. The macrophage cultures were infected at a MOI of 1:1 (macrophage: bacterium). Phagocytosis was allowed to progress for 3 h. After 3 h, extracellular mycobacteria were removed by washing with PBS 1X and the infected cell monolayers were treated for 4 days with chalcone samples or rifampicin. Macrophage viability was monitored by LDH assay and was over 80% in all experiments. On day 4 after infection, cells were lysed cells with 1% saponin to release intracellular bacteria. Lysate aliquots were diluted 10-fold in PBS, plated in triplicates on 7H10 agar plates and incubated at 37 °C. After 21 days, total CFU were determined.

[5] = tested on: M. tuberculosis strain H37Rv in RAW 264.7 macrophages; assay: Intracellular growth of M. tuberculosis H37Rv in infected macrophages (CFU); type: cell-based, Mycobacterium tuberculosis; settings: Mycobacterium tuberculosis, H37RV, 96 h, infected RAW 264.7, MOI 1:1, 4 days, Figure 3C
Protocol: as §1

[6] = Mus musculus, RAW264.7, 24 h, LPS (1 µg/mL)-stimulated RAW 264.7, 24 h, read-out: IC50 NO
[7] = H37RV, 120 h, read-out: MIC50 M. tuberculosis H37Rv
[8] = Table 5, same values as M. tuberculosis H37Rv in Table 3, read-out: MIC50

Compound	IC50 [1] [µM]	MIC50 (M. bovis BCG) [µM]	MIC90 (M. bovis BCG) [µM]	IC50 [2] [µM]	cytotoxicity profile (RAW 264.7 macrophages)	IC50 ([3]; LPS (1 µg/mL)-stimulated RAW 264.7, 24 h, read-out: IC50 NO) [µM]	IC50 ([3]; Mus musculus, RAW264.7, 24 h, read-out: IC50 NO, LPS (1 µg/mL)-stimulated RAW 264.7, 24 h) [µM]	IC50 [3, 6] [µM]	MIC90 (M. tuberculosis H37Rv; H37RV, 120 h) [µM]	MIC50 (M. tuberculosis H37Rv; [7]) [µM]	MIC50 (M. tuberculosis H37Rv; [8]) [µM]	MIC50 (M. tuberculosis M299) [µM]	MIC90 (M. tuberculosis M299) [µM]	IC50 [4] [µM]	MIC90 M. bovis BCG (M. bovis BCG; culture, 7 days, MTT) [µM]	MIC50 [5] [µM]
COc1ccc(/C=C/C(=O)c2ccc(OC)cc2)cc1 [Chalcone 29]	> 373	32.5 ± 5.4 (≈ 8.72 µg/mL)	339.5 ± 3.2 (≈ 91.1 µg/mL)	93.9 ± 4.9	worst cytotoxicity profiles	13.1 ± 4.2	< 21	–	–	–	–	–	–	–	–	–
CN(C)c1ccc(/C=C/C(=O)c2ccc(Br)cc2)cc1 [Chalcone 11]	> 303	67.8 ± 3.8 (≈ 22.4 µg/mL)	242 ± 2.6 (≈ 79.9 µg/mL)	132 ± 2.9	worst cytotoxicity profiles	–	–	41.3 ± 3.5	–	–	–	–	–	–	–	–
O=C(/C=C/c1ccccc1)c1ccc(Br)cc1 [Chalcone 8]	66.9 ± 4.5	13.4 ± 4 (≈ 3.85 µg/mL)	33.7 ± 4.6 (≈ 9.68 µg/mL)	191 ± 5.2	–	–	–	46.4 ± 2.3	326 ± 3.3 (≈ 93.6 µg/mL)	10.5 ± 3.8 (≈ 3.02 µg/mL)	10.5 ± 3.8 (≈ 3.02 µg/mL)	10.2 ± 4.9 (≈ 2.93 µg/mL)	344.7 ± 0.4 (≈ 99 µg/mL)	66.1 ± 1.5	33.7 ± 4.6 (≈ 9.68 µg/mL)	13.5 ± 0.6 (≈ 3.88 µg/mL)
O=C(/C=C/c1ccc(Cl)cc1)c1ccc(Br)cc1 [Chalcone 10]	> 311	22.3 ± 6.3 (≈ 7.17 µg/mL)	288 ± 3.2 (≈ 92.6 µg/mL)	113.4 ± 0.5	worst cytotoxicity profiles	–	–	68.9 ± 4.3	–	–	–	–	–	–	–	–
O=C(/C=C/c1ccc(F)cc1)c1ccc(Br)cc1 [Chalcone 9]	> 328	35.8 ± 3.9 (≈ 10.9 µg/mL)	309 ± 5.3 (≈ 94.2 µg/mL)	> 328	–	–	–	> 328	252 ± 2.7 (≈ 76.9 µg/mL)	24.4 ± 4.5 (≈ 7.45 µg/mL)	24.4 ± 4.5 (≈ 7.45 µg/mL)	53.6 ± 1.9 (≈ 16.3 µg/mL)	313 ± 1.4 (≈ 95.5 µg/mL)	> 321	–	12 ± 1.1 (≈ 3.66 µg/mL)
COc1ccc(C(=O)/C=C/c2ccccc2Cl)cc1 [Chalcone 30]	> 367	37.8 ± 6.4 (≈ 10.3 µg/mL)	329 ± 3.6 (≈ 89.6 µg/mL)	100 ± 5.1	worst cytotoxicity profiles	–	–	23.9 ± 4.8	–	–	–	–	–	–	–	–
